Literature values, collected in paper doi:10.1101/2024.08.20.608791v1 (bioRxiv, 2024).

Columns and labels:
[1] = humans; for estimated / proposed fa: oral, compounds without fa values in man, estimate or proposal only
[2] = <LOQ
[3] = as reported in Table 1 and text; source and method not stated
[4] = for in vitro permeability, not able to quantify: not able to quantify in an in vitro permeability assay (≤LOQ); for in vitro permeability (in words): assay not specified
[5] = for observed F: oral bioavailability, not marked as animal data, source not stated per compound
[6] = oral bioavailability in animals, species not stated

## C=CC[C@@H]1/C=C(\C)C[C@H](C)C[C@H](OC)[C@H]2O[C@@](O)(C(=O)C(=O)N3CCCC[C@H]3C(=O)O[C@H](/C(C)=C/[C@@H]3CC[C@@H](O)[C@H](OC)C3)[C@H](C)[C@@H](O)CC1=O)[C@H](C)C[C@@H]2OC [tacrolimus]
[1]
  estimated / proposed fa: > 15%

## CC1(C)CCC(CN2CCN(c3ccc(C(=O)NS(=O)(=O)c4ccc(NCC5CCOCC5)c([N+](=O)[O-])c4)c(Oc4cnc5[nH]ccc5c4)c3)CC2)=C(c2ccc(Cl)cc2)C1 [Venetoclax]
[1]
  fraction absorbed (fa) of approved oral drugs: > 65%
[2]
  solubility in water (in words): practically insoluble in water
[3]
  log P: 8.2

## Vancomycin
[4]
  in vitro permeability, not able to quantify: ≤ LOQ

## semaglutide
[5]
  observed F: 0.8%

## Nc1nc(=O)c2c([nH]1)NCC(CNc1ccc(C(=O)N[C@@H](CCC(=O)O)C(=O)O)cc1)N2C=O (mixture of isomers) [Folinic acid]
[4]
  in vitro permeability, not able to quantify: ≤ LOQ

## quinupristin
[2]
  solubility in water (in words): practically insoluble in water

## pasireotide
[4]
  in vitro permeability (in words): low in vitro permeability

## CC1(C)S[C@@H]2[C@H](NC(=O)[C@H](NC(=O)N3CCN(S(C)(=O)=O)C3=O)c3ccccc3)C(=O)N2[C@H]1C(=O)O [mezlocillin]
[1]
  estimated / proposed fa: zero

## CO[C@H]1/C=C/O[C@@]2(C)Oc3c(C)c(O)c4c(O)c(c5c(nc6cc(C)ccn65)c4c3C2=O)NC(=O)/C(C)=C\C=C\[C@H](C)[C@H](O)[C@@H](C)[C@@H](O)[C@@H](C)[C@H](OC(C)=O)[C@@H]1C [rifaximin]
[2]
  solubility in water (in words): practically insoluble in water

## CC(C)(C)OC(=O)N[C@H]1CCCCC/C=C\[C@@H]2C[C@@]2(C(=O)NS(=O)(=O)C2CC2)NC(=O)[C@@H]2C[C@@H](OC(=O)N3Cc4cccc(F)c4C3)CN2C1=O [danoprevir]
[4]
  in vitro permeability, not able to quantify: ≤ LOQ

## COC(=O)N[C@H](C(=O)N1CCC[C@H]1c1nc(-c2ccc(-c3ccc(-c4c[nH]c([C@@H]5CCCN5C(=O)[C@@H](NC(=O)OC)C(C)C)n4)cc3)cc2)c[nH]1)C(C)C [Daclatasvir]
[3]
  log P: 5.1

## Neomycin
[3]
  log P: -6.6

## voclosporin
[2]
  solubility in water (in words): practically insoluble in water

## CO[C@H]1C[C@H](O[C@H]2CC[C@]3(C=O)[C@H]4CC[C@]5(C)[C@@H](C6=CC(=O)OC6)CC[C@]5(O)[C@@H]4CC[C@]3(O)C2)O[C@H](C)[C@H]1O[C@@H]1O[C@H](CO[C@@H]2O[C@H](CO)[C@@H](O)[C@H](O)[C@H]2O)[C@@H](O)[C@H](O)[C@H]1O [k-strophanthoside]
[1]
  fraction absorbed (fa) of approved oral drugs: 16%

## N#C[C@H](O[C@@H]1O[C@H](CO[C@@H]2O[C@H](CO)[C@@H](O)[C@H](O)[C@H]2O)[C@@H](O)[C@H](O)[C@H]1O)c1ccccc1 [Amygdalin]
[4]
  in vitro permeability, not able to quantify: ≤ LOQ

## CN1Cc2c(Cl)cc(Cl)cc2[C@H](c2cccc(S(=O)(=O)NCCOCCOCCNC(=O)NCCCCNC(=O)NCCOCCOCCNS(=O)(=O)c3cccc([C@@H]4CN(C)Cc5c(Cl)cc(Cl)cc54)c3)c2)C1 [Tenapanor]
[3]
  log P: 4.8

## CC(C)[C@@H](C)[C@@]1(C)CC[C@]2(C)[C@H]3CC[C@@H]4[C@@]5(COC[C@@]4(C)[C@@H](OC[C@](C)(N)C(C)(C)C)[C@H](n4ncnc4-c4ccncc4)C5)C3=CC[C@@]2(C)[C@@H]1C(=O)O [Ibrexafungerp]
[3]
  log P: 5.8

## bivalirudin
[2]
  solubility in water (in words): practically insoluble in water

## octreotide
[4]
  in vitro permeability, not able to quantify: ≤ LOQ

## COC(=O)N[C@H](C(=O)N1CCC[C@H]1C(=O)Nc1ccc([C@@H]2CC[C@@H](c3ccc(NC(=O)[C@@H]4CCCN4C(=O)[C@@H](NC(=O)OC)C(C)C)cc3)N2c2ccc(C(C)(C)C)cc2)cc1)C(C)C [Ombitasvir]
[4]
  in vitro permeability, not able to quantify: ≤ LOQ
[3]
  log P: 5.7

## CC(=O)O[C@H]1C(=O)[C@@]2(C)[C@H]([C@H](OC(=O)c3ccccc3)[C@]3(O)C[C@H](OC(=O)[C@H](O)[C@@H](NC(=O)c4ccccc4)c4ccccc4)C(C)=C1C3(C)C)[C@]1(OC(C)=O)CO[C@@H]1C[C@@H]2O [paclitaxel]
[4]
  in vitro permeability, not able to quantify: ≤ LOQ

## terlipressin
[4]
  in vitro permeability, not able to quantify: ≤ LOQ

## CC[C@]1(O)C[C@H]2CN(CCc3c([nH]c4ccccc34)[C@@](C(=O)OC)(c3cc4c(cc3OC)N(C=O)[C@H]3[C@@](O)(C(=O)OC)[C@H](OC(C)=O)[C@]5(CC)C=CCN6CC[C@]43[C@@H]65)C2)C1 [vincristine]
[4]
  in vitro permeability, not able to quantify: ≤ LOQ

## anidulafungin
[5]; species not stated, quoted as comparison for micafungin
  F: 2-7%
[2]
  solubility in water (in words): practically insoluble in water

## Cc1ccc(C(=O)Nc2ccc(S(=O)(=O)O)c3cc(S(=O)(=O)O)cc(S(=O)(=O)O)c23)cc1NC(=O)c1cccc(NC(=O)Nc2cccc(C(=O)Nc3cc(C(=O)Nc4ccc(S(=O)(=O)O)c5cc(S(=O)(=O)O)cc(S(=O)(=O)O)c45)ccc3C)c2)c1 [suramin]
[4]
  in vitro permeability, not able to quantify: ≤ LOQ

## CC(C)c1nc(CN(C)C(=O)N[C@H](C(=O)N[C@@H](Cc2ccccc2)C[C@H](O)[C@H](Cc2ccccc2)NC(=O)OCc2cncs2)C(C)C)cs1 [Ritonavir]
[3]
  log P: 5.2

## CO/N=C(\C(=O)N[C@@H]1C(=O)N2C(C(=O)O)=C(CSc3nc(=O)c(=O)[nH]n3C)CS[C@H]12)c1csc(N)n1 [Ceftriaxone]
[4]
  in vitro permeability, not able to quantify: ≤ LOQ

## CO[C@H]1C[C@@H]2CC[C@@H](C)[C@@](O)(O2)C(=O)C(=O)N2CCCC[C@H]2C(=O)O[C@H]([C@H](C)C[C@@H]2CC[C@@H](OCCO)[C@H](OC)C2)CC(=O)[C@H](C)/C=C(\C)[C@@H](O)[C@@H](OC)C(=O)[C@H](C)C[C@H](C)/C=C/C=C/C=C/1C [everolimus]
[2]
  solubility in water (in words): practically insoluble in water

## COc1cc(F)c(C(C)C)cc1-c1ccc(C(F)(F)F)cc1CN1C(=O)O[C@H](c2cc(C(F)(F)F)cc(C(F)(F)F)c2)[C@@H]1C [anacetrapib]
[3]
  log P: 9.3

## CC[C@H]1OC(=O)[C@H](C)C(=O)[C@H](C)[C@@H](O[C@@H]2O[C@H](C)C[C@H](N(C)C)[C@H]2O)[C@](C)(OC/C=C/c2cnc3ccccc3c2)C[C@@H](C)C(=O)[C@H](C)[C@H]2NC(=O)O[C@@]21C [Cethromycin]
[3]
  log P: 5.4

## CC(C)c1nc(CN(C)C(=O)N[C@@H](CCN2CCOCC2)C(=O)N[C@H](CC[C@H](Cc2ccccc2)NC(=O)OCc2cncs2)Cc2ccccc2)cs1 [cobicistat]
[6]
  observed F in animals: 11-33%

## CO[C@H]1C[C@@H]2CC[C@@H](C)[C@@](O)(O2)C(=O)C(=O)N2CCCC[C@H]2C(=O)O[C@H]([C@H](C)C[C@@H]2CC[C@@H](OP(C)(C)=O)[C@H](OC)C2)CC(=O)[C@H](C)/C=C(\C)[C@@H](O)[C@@H](OC)C(=O)[C@H](C)C[C@H](C)/C=C/C=C/C=C/1C [ridaforolimus]
[2]
  solubility in water (in words): practically insoluble in water

## NNC(=O)NN1C(=O)c2cc(S(=O)(=O)O)cc3c(N)c(S(=O)(=O)O)cc(c23)C1=O [lucifer yellow CH]
[4]
  in vitro permeability (in words): moderate in vitro permeability

## CCc1c(Cl)c(O)c(Cl)c(O)c1C(=O)O[C@H]1[C@H](O)[C@H](OC)[C@H](OC/C2=C\C=C\C[C@H](O)/C(C)=C/[C@H](CC)[C@@H](O[C@@H]3OC(C)(C)[C@@H](OC(=O)C(C)C)[C@H](O)[C@@H]3O)/C(C)=C/C(C)=C/C[C@@H]([C@@H](C)O)OC2=O)O[C@@H]1C [Fidaxomicin]
[3]
  log P: 6.4

## CO/N=C(\C(=O)N[C@@H]1C(=O)N2C(C(=O)O)=C(CSc3nc(C)c(CC(=O)O)s3)CS[C@H]12)c1csc(N)n1 [Cefodizime]
[4]
  in vitro permeability, not able to quantify: ≤ LOQ

## dalbavancin
[4]
  in vitro permeability, not able to quantify: ≤ LOQ

## desmopressin
[5]
  observed F: 0.08-0.16%

## COC(=O)N[C@H](C(=O)N1CCC[C@H]1c1nc(-c2ccc3c(c2)O[C@@H](c2ccccc2)n2c-3cc3cc(-c4c[nH]c([C@@H]5CCCN5C(=O)[C@@H](NC(=O)OC)C(C)C)n4)ccc32)c[nH]1)C(C)C [elbasvir]
[2]
  solubility in water (in words): practically insoluble in water

## CC[C@H]1OC(=O)[C@H](C)[C@@H](O[C@H]2C[C@@](C)(OC)[C@@H](O)[C@H](C)O2)[C@H](C)[C@@H](O[C@@H]2O[C@H](C)C[C@H](N(C)C)[C@H]2O)[C@](C)(O)C[C@@H](C)CN(C)[C@H](C)[C@@H](O)[C@]1(C)O [Azithromycin]
[2]
  solubility in water (in words): practically insoluble in water

## Teicoplanin A2 1
[3]
  log P: -2.3

## C=C1C[C@@]23CC[C@H]4[C@@](C)(CCC[C@@]4(C)C(=O)O[C@@H]4O[C@H](CO)[C@@H](O)[C@H](O)[C@H]4O)[C@@H]2CC[C@]1(O[C@@H]1O[C@H](CO)[C@@H](O)[C@H](O)[C@H]1O[C@@H]1O[C@H](CO)[C@@H](O)[C@H](O)[C@H]1O)C3 [stevioside]
[4]
  in vitro permeability (in words): limited permeability

## CC1(C)CC[C@]2(NC(=O)C(C)(F)F)CC[C@]3(C)[C@H](C(=O)C=C4[C@@]5(C)C=C(C#N)C(=O)C(C)(C)[C@@H]5CC[C@]43C)[C@@H]2C1 [omaveloxolone]
[5]
  observed F: 8%

## C=C[C@@H]1C[C@]1(NC(=O)[C@@H]1C[C@@H](Oc2cc(-c3csc(NC(=O)C(C)C)n3)nc3c(Br)c(OC)ccc23)CN1C(=O)[C@@H](NC(=O)OC1CCCC1)C(C)(C)C)C(=O)O [faldaprevir]
[6]
  observed F in animals: 26-39%

## cholecystokinin octapeptide
[5]
  observed F: 0.2%

## COC[C@H]1C[C@@H](c2ncc(-c3ccc4c(c3)COc3cc5c(ccc6nc([C@@H]7CC[C@H](C)N7C(=O)[C@@H](NC(=O)OC)C(C)C)[nH]c65)cc3-4)[nH]2)N(C(=O)[C@H](NC(=O)OC)c2ccccc2)C1 [velpatasvir]
[1]
  estimated / proposed fa: 25-30%
[2]
  solubility in water (in words): practically insoluble in water
